Data reported in US11485726B2, “Compound for inhibiting and degrading tyrosine protein kinase ALK” (SHANGHAI MEIZER PHARMACEUTICALS CO., LTD., priority 2017, dated 2022).

Assays:
ALK kinase [1] = target: T1, ALK kinase (Homo sapiens, UniProt Q9UM73); test: ALK inhibition activity by Caliper assay; format: biochemical; details: compound 100 nM
Procedure: Example 5 Testing the ALK Inhibition Activity of Compound by Caliper Assay
The experimental steps were as follows:
Preparation of 1×kinase reaction buffer (50 mM HEPES, PH 7.5; 0.0015% Brij-35) and kinase reaction termination solution (100 mM HEPES, PH 7.5; 0.0015% Brij-35; 0.2% Coating Reagent; 50 mM EDTA);
Preparation of experimental samples: 100 μl of 5 μM sample solution (dissolved in 100% DMSO) was added to a 96-well plate to obtain a 50×sample solution. As controls, two wells containing only 100 μL of 100% DMSO were set on the same plate. One was served as a control without samples and the other was served as a control without enzymes. 10 μL of sample and 90 μL, of 1×kinase reaction buffer were added to a 96-well plate as a transfer plate. The transfer plate was shaken for 10 minutes.
Preparation of the test plate: taking 5 μL of each of the prepared samples from the 96-well transfer plate into a 384-well plate.
Kinase reaction: to 5 μL of 5×compound solution (dissolved in DMSO, diluted 10 times with water) was added 10 μL of 2.5×ALK kinase solution (kinase was diluted with 1×kinase reaction buffer), which was incubated at room temperature for 10 min, and then 10 μL of 2.5×substrate peptide solution (FAM-labeled peptide and ATP were diluted with 1×kinase reaction buffer) was added.
Termination of the kinase reaction: 25 μL of kinase reaction termination solution was added after being reacted at 28° C. for a period of time.
The fluorescence (F) was tested on a Caliper and data was collected.
The inhibition rate of kinase activity was calculated: the percent inhibition rate of kinase activity=(FDMSO control−Fsample)/(FDMSO control−Fnegative control)×100, with DMSO as the solution control, and no kinase as the negative control.
Target sequence in this assay (Q9UM73 19-1620): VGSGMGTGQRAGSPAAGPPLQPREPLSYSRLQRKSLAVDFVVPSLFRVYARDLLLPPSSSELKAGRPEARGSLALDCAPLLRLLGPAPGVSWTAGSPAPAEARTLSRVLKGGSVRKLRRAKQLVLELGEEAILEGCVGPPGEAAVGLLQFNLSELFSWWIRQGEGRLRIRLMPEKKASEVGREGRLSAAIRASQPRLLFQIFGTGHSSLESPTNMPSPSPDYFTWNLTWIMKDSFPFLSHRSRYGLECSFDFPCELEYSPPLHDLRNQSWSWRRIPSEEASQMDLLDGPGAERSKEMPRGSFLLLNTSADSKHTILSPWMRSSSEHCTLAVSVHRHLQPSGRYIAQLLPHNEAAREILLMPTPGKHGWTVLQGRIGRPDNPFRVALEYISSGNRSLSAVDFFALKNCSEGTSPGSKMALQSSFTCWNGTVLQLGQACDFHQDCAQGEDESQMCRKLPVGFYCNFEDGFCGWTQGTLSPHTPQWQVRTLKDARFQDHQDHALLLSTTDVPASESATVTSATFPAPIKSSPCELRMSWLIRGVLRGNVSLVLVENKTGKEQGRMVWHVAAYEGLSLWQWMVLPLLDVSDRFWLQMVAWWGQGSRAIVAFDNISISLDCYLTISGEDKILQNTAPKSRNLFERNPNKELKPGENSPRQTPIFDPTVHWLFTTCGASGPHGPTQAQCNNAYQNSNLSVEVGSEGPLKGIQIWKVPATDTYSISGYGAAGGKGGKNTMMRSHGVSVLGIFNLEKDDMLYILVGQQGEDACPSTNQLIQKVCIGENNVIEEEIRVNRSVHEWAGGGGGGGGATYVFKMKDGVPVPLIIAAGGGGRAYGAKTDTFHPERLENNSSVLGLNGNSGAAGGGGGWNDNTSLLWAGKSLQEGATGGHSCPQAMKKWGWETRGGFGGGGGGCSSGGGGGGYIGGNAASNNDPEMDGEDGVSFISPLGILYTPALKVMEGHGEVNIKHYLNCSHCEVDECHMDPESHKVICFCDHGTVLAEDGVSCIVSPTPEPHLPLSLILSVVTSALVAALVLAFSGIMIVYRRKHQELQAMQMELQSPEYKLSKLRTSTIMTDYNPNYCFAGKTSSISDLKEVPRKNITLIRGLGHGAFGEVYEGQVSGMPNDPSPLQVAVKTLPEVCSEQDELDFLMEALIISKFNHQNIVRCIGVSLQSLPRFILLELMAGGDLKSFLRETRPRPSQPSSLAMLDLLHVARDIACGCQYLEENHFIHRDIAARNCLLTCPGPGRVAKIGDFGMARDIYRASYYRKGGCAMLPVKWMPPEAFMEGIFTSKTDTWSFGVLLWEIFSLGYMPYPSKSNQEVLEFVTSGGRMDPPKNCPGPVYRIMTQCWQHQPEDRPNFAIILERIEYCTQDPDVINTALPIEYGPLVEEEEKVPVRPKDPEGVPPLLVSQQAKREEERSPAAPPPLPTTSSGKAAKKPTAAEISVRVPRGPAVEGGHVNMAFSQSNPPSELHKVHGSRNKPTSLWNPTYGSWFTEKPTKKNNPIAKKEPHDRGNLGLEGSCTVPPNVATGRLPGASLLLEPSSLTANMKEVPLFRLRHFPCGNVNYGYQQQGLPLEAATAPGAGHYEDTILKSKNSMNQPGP

ALK kinase [2] = target: T1, ALK kinase; test: ALK protein degradation activity by Western blot in H2228 cells; format: cell-based; set-up: H2228 cell lines (human non-small cell line lung cancer cells, available from ATCC); host or cells: H2228 (human non-small cell lung cancer cells); the other entry of the earlier key: EML4 (Q9HC35, Echinoderm microtubule-associated protein-like 4); details: NCI-H2228, compound 1 μM, treatment for 24 hours, degradation rate by Western blot
Target sequence in this assay (Q9UM73 with tags, fused parts or gaps): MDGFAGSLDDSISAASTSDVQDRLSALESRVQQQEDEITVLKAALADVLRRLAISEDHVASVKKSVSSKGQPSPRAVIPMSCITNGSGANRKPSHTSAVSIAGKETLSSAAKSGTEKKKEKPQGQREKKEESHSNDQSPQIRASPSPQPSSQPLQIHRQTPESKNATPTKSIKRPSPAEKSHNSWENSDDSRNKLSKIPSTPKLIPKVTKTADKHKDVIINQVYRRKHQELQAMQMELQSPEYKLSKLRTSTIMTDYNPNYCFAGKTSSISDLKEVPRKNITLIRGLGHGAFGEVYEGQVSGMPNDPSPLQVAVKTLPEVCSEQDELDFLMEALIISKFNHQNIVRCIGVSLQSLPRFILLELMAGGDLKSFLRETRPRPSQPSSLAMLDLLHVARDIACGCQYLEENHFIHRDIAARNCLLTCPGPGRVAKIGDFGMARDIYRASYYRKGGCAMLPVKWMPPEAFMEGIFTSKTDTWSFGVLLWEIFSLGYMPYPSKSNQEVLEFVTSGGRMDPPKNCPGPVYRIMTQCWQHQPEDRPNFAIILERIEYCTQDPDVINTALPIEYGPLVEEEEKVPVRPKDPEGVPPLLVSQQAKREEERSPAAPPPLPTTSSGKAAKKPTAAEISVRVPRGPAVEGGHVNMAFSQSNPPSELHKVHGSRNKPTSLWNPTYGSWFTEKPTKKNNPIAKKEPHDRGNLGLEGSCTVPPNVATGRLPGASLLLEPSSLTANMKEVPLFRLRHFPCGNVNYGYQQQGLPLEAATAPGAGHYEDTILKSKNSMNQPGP

SU-DHL-1 cells = test: Inhibition of proliferation of SU-DHL-1 cells by CTG assay; format: cell-based; details: Homo sapiens, compound 100 μM, 72 hours
Procedure: Example 7 Testing the Inhibitory Effect of Formula Compound on the Proliferation of SU-DHL-1 Cells by CTG Assay
The inhibitory effect of the compound on the proliferation of SU-DHL-1 cells ([…]) was determined by the […] method in vitro. The Cells were cultured and the compound was prepared referring to the method of […], and the culture time after administration was 72 hours. Subsequently, an appropriate amount of CTG reagent was added, the luminescence value was measured, and the inhibition rate was calculated.

## Cc1cc(Nc2ncc(Cl)c(Nc3ccccc3S(=O)(=O)C(C)C)n2)c(OC(C)C)cc1C1CCN(CCCCCC(=O)Nc2cccc3c2C(=O)N(C2CCC(=O)NC2=O)C3=O)CC1 (centres unmarked) [Compound 3]
ALK kinase [1]
  inhibition at 0.1 µM: 98%
ALK kinase [2]
  inhibition at 1 µM: > 90%
SU-DHL-1 cells
  inhibition at 100 µM: 72%

## Cc1cc(Nc2ncc(Cl)c(Nc3ccccc3S(=O)(=O)C(C)C)n2)c(OC(C)C)cc1C1CCN(CCOCCOCCOc2cccc3c2C(=O)N(C2CCC(=O)NC2=O)C3=O)CC1 (centres unmarked) [Compound 7]
ALK kinase [1]
  inhibition at 0.1 µM: 97%
ALK kinase [2]
  inhibition at 1 µM: > 90%
SU-DHL-1 cells
  inhibition at 100 µM: 98%

## Cc1cc(Nc2ncc(Cl)c(Nc3ccccc3S(=O)(=O)C(C)C)n2)c(OC(C)C)cc1C1CCN(C(=O)COCCOCCNc2cccc3c2C(=O)N(C2CCC(=O)NC2=O)C3=O)CC1 (centres unmarked) [Compound 10]
ALK kinase [1]
  inhibition at 0.1 µM: 99%
ALK kinase [2]
  inhibition at 1 µM: > 90%

## Cc1cc(Nc2ncc(Cl)c(Nc3ccccc3S(=O)(=O)C(C)C)n2)c(OC(C)C)cc1C1CCN(S(=O)(=O)CCCCCOc2cccc3c2C(=O)N(C2CCC(=O)NC2=O)C3=O)CC1 (centres unmarked) [Compound 13]
ALK kinase [1]
  inhibition at 0.1 µM: 69%
ALK kinase [2]
  inhibition at 1 µM: > 90%

## Cc1cc(Nc2ncc(Cl)c(Nc3ccccc3S(=O)(=O)C(C)C)n2)c(OC(C)C)cc1C1CCN(CCOCCOCCOCCNc2cccc3c2C(=O)N(C2CCC(=O)NC2=O)C3=O)CC1 (centres unmarked) [Compound 14]
ALK kinase [1]
  inhibition at 0.1 µM: 89%
ALK kinase [2]
  inhibition at 1 µM: > 90%
SU-DHL-1 cells
  inhibition at 100 µM: 99%

## Cc1cc(Nc2ncc(Cl)c(Nc3ccccc3S(=O)(=O)C(C)C)n2)c(OC(C)C)cc1C1CCN(CCOCCOCCOCCOc2cccc3c2C(=O)N(C2CCC(=O)NC2=O)C3=O)CC1 (centres unmarked) [Compound 15]
ALK kinase [1]
  inhibition at 0.1 µM: 95%
ALK kinase [2]
  inhibition at 1 µM: > 90%
SU-DHL-1 cells
  inhibition at 100 µM: 100%

## Cc1cc(Nc2ncc(Cl)c(Nc3ccccc3S(=O)(=O)C(C)C)n2)c(OC(C)C)cc1C1CCN(CCCCC(=O)Nc2cccc3c2C(=O)N(C2CCC(=O)NC2=O)C3=O)CC1 (centres unmarked) [Compound 16]
ALK kinase [2]
  inhibition at 1 µM: > 90%

## Cc1cc(Nc2ncc(Cl)c(Nc3ccccc3S(=O)(=O)C(C)C)n2)c(OC(C)C)cc1C1CCN(CCCC(=O)Nc2cccc3c2C(=O)N(C2CCC(=O)NC2=O)C3=O)CC1 (centres unmarked) [Compound 17]
ALK kinase [2]
  inhibition at 1 µM: > 90%

## Cc1cc(Nc2ncc(Cl)c(Nc3ccccc3S(=O)(=O)C(C)C)n2)c(OC(C)C)cc1C1CCN(CCC(=O)Nc2cccc3c2C(=O)N(C2CCC(=O)NC2=O)C3=O)CC1 (centres unmarked) [Compound 18]
ALK kinase [2]
  inhibition at 1 µM: > 90%

## Cc1cc(Nc2ncc(Cl)c(Nc3ccccc3S(=O)(=O)C(C)C)n2)c(OC(C)C)cc1C1CCN(CCOCCOCCC(=O)Nc2cccc3c2C(=O)N(C2CCC(=O)NC2=O)C3=O)CC1 (centres unmarked) [Compound 19]
ALK kinase [2]
  inhibition at 1 µM: > 90%

## Cc1cc(Nc2ncc(Cl)c(Nc3ccccc3S(=O)(=O)C(C)C)n2)c(OC(C)C)cc1C1CCN(CCOCCOCCOCCC(=O)Nc2cccc3c2C(=O)N(C2CCC(=O)NC2=O)C3=O)CC1 (centres unmarked) [Compound 20]
ALK kinase [2]
  inhibition at 1 µM: > 90%

## Cc1cc(Nc2ncc(Cl)c(Nc3ccccc3S(=O)(=O)C(C)C)n2)c(OC(C)C)cc1C1CCN(CCOCCOc2cccc3c2C(=O)N(C2CCC(=O)NC2=O)C3=O)CC1 (centres unmarked) [Compound 21]
ALK kinase [2]
  inhibition at 1 µM: 50 to 90%

## Cc1cc(Nc2ncc(Cl)c(Nc3ccccc3S(=O)(=O)C(C)C)n2)c(OC(C)C)cc1C1CCN(CCCCCOc2cccc3c2C(=O)N(C2CCC(=O)NC2=O)C3=O)CC1 (centres unmarked) [Compound 22]
ALK kinase [2]
  inhibition at 1 µM: 50 to 90%

## Cc1cc(Nc2ncc(Cl)c(Nc3ccccc3S(=O)(=O)C(C)C)n2)c(OC(C)C)cc1C1CCN(CCCCOc2cccc3c2C(=O)N(C2CCC(=O)NC2=O)C3=O)CC1 (centres unmarked) [Compound 23]
ALK kinase [2]
  inhibition at 1 µM: 50 to 90%

## Cc1cc(Nc2ncc(Cl)c(Nc3ccccc3S(=O)(=O)C(C)C)n2)c(OC(C)C)cc1C1CCN(CCCOc2cccc3c2C(=O)N(C2CCC(=O)NC2=O)C3=O)CC1 (centres unmarked) [Compound 24]
ALK kinase [2]
  inhibition at 1 µM: 50 to 90%

## Cc1cc(Nc2ncc(Cl)c(Nc3ccccc3S(=O)(=O)C(C)C)n2)c(OC(C)C)cc1C1CCN(CCOCCOCCOCCOCCOc2cccc3c2C(=O)N(C2CCC(=O)NC2=O)C3=O)CC1 (centres unmarked) [Compound 25]
ALK kinase [2]
  inhibition at 1 µM: > 90%

## Cc1cc(Nc2ncc(Cl)c(Nc3ccccc3S(=O)(=O)C(C)C)n2)c(OC(C)C)cc1C1CCN(CCOCCOCCOCCOCCOCCOc2cccc3c2C(=O)N(C2CCC(=O)NC2=O)C3=O)CC1 (centres unmarked) [Compound 26]
ALK kinase [2]
  inhibition at 1 µM: 50 to 90%

## Cc1cc(Nc2ncc(Cl)c(Nc3ccccc3S(=O)(=O)C(C)C)n2)c(OC(C)C)cc1C1CCN(CCOCCNc2cccc3c2C(=O)N(C2CCC(=O)NC2=O)C3=O)CC1 (centres unmarked) [Compound 27]
ALK kinase [2]
  inhibition at 1 µM: > 90%

## Cc1cc(Nc2ncc(Cl)c(Nc3ccccc3S(=O)(=O)C(C)C)n2)c(OC(C)C)cc1C1CCN(CCCCCNc2cccc3c2C(=O)N(C2CCC(=O)NC2=O)C3=O)CC1 (centres unmarked) [Compound 28]
ALK kinase [2]
  inhibition at 1 µM: > 90%

## Cc1cc(Nc2ncc(Cl)c(Nc3ccccc3S(=O)(=O)C(C)C)n2)c(OC(C)C)cc1C1CCN(CCCCNc2cccc3c2C(=O)N(C2CCC(=O)NC2=O)C3=O)CC1 (centres unmarked) [Compound 29]
ALK kinase [2]
  inhibition at 1 µM: 50 to 90%

## Cc1cc(Nc2ncc(Cl)c(Nc3ccccc3S(=O)(=O)C(C)C)n2)c(OC(C)C)cc1C1CCN(CCCNc2cccc3c2C(=O)N(C2CCC(=O)NC2=O)C3=O)CC1 (centres unmarked) [Compound 30]
ALK kinase [2]
  inhibition at 1 µM: 50 to 90%

## Cc1cc(Nc2ncc(Cl)c(Nc3ccccc3S(=O)(=O)C(C)C)n2)c(OC(C)C)cc1C1CCN(CCOCCOCCOCCOCCNc2cccc3c2C(=O)N(C2CCC(=O)NC2=O)C3=O)CC1 (centres unmarked) [Compound 31]
ALK kinase [2]
  inhibition at 1 µM: > 90%

## Cc1cc(Nc2ncc(Cl)c(Nc3ccccc3S(=O)(=O)C(C)C)n2)c(OC(C)C)cc1C1CCN(CCOCCOCCOCCOCCOCCNc2cccc3c2C(=O)N(C2CCC(=O)NC2=O)C3=O)CC1 (centres unmarked) [Compound 32]
ALK kinase [2]
  inhibition at 1 µM: 50 to 90%

## Cc1cc(Nc2ncc(Cl)c(Nc3ccccc3S(=O)(=O)C(C)C)n2)c(OC(C)C)cc1C1CCN(CC(=O)NCCNc2cccc3c2C(=O)N(C2CCC(=O)NC2=O)C3=O)CC1 (centres unmarked) [Compound 33]
ALK kinase [2]
  inhibition at 1 µM: > 90%

## Cc1cc(Nc2ncc(Cl)c(Nc3ccccc3S(=O)(=O)C(C)C)n2)c(OC(C)C)cc1C1CCN(CC(=O)NCCOCCOCCNc2cccc3c2C(=O)N(C2CCC(=O)NC2=O)C3=O)CC1 (centres unmarked) [Compound 35]
ALK kinase [2]
  inhibition at 1 µM: > 90%

## Cc1cc(Nc2ncc(Cl)c(Nc3ccccc3S(=O)(=O)C(C)C)n2)c(OC(C)C)cc1C1CCN(CC(=O)NCCOCCOCCOCCNc2cccc3c2C(=O)N(C2CCC(=O)NC2=O)C3=O)CC1 (centres unmarked) [Compound 36]
ALK kinase [2]
  inhibition at 1 µM: > 90%

## Cc1cc(Nc2ncc(Cl)c(Nc3ccccc3S(=O)(=O)C(C)C)n2)c(OC(C)C)cc1C1CCN(CC(=O)NCCOCCOCCOCCOCCNc2cccc3c2C(=O)N(C2CCC(=O)NC2=O)C3=O)CC1 (centres unmarked) [Compound 37]
ALK kinase [2]
  inhibition at 1 µM: 50 to 90%

## Cc1cc(Nc2ncc(Cl)c(Nc3ccccc3S(=O)(=O)C(C)C)n2)c(OC(C)C)cc1C1CCN(CC(=O)NCCOCCOCCOCCOCCOCCNc2cccc3c2C(=O)N(C2CCC(=O)NC2=O)C3=O)CC1 (centres unmarked) [Compound 38]
ALK kinase [2]
  inhibition at 1 µM: 50 to 90%

## Cc1cc(Nc2ncc(Cl)c(Nc3ccccc3S(=O)(=O)C(C)C)n2)c(OC(C)C)cc1C1CCN(CC(=O)NCCOc2cccc3c2C(=O)N(C2CCC(=O)NC2=O)C3=O)CC1 (centres unmarked) [Compound 39]
ALK kinase [2]
  inhibition at 1 µM: > 90%

## Cc1cc(Nc2ncc(Cl)c(Nc3ccccc3S(=O)(=O)C(C)C)n2)c(OC(C)C)cc1C1CCN(CC(=O)NCCOCCOc2cccc3c2C(=O)N(C2CCC(=O)NC2=O)C3=O)CC1 (centres unmarked) [Compound 40]
ALK kinase [2]
  inhibition at 1 µM: > 90%

## Cc1cc(Nc2ncc(Cl)c(Nc3ccccc3S(=O)(=O)C(C)C)n2)c(OC(C)C)cc1C1CCN(CC(=O)NCCOCCOCCOc2cccc3c2C(=O)N(C2CCC(=O)NC2=O)C3=O)CC1 (centres unmarked) [Compound 41]
ALK kinase [2]
  inhibition at 1 µM: > 90%

## Cc1cc(Nc2ncc(Cl)c(Nc3ccccc3S(=O)(=O)C(C)C)n2)c(OC(C)C)cc1C1CCN(CC(=O)NCCOCCOCCOCCOc2cccc3c2C(=O)N(C2CCC(=O)NC2=O)C3=O)CC1 (centres unmarked) [Compound 42]
ALK kinase [2]
  inhibition at 1 µM: > 90%

## Cc1cc(Nc2ncc(Cl)c(Nc3ccccc3S(=O)(=O)C(C)C)n2)c(OC(C)C)cc1C1CCN(CC(=O)NCCOCCOCCOCCOCCOc2cccc3c2C(=O)N(C2CCC(=O)NC2=O)C3=O)CC1 (centres unmarked) [Compound 43]
ALK kinase [2]
  inhibition at 1 µM: 50 to 90%

## Cc1cc(Nc2ncc(Cl)c(Nc3ccccc3S(=O)(=O)C(C)C)n2)c(OC(C)C)cc1C1CCN(CC(=O)NCCOCCOCCOCCOCCOCCOc2cccc3c2C(=O)N(C2CCC(=O)NC2=O)C3=O)CC1 (centres unmarked) [Compound 44]
ALK kinase [2]
  inhibition at 1 µM: 50 to 90%

## Cc1cc(Nc2ncc(Cl)c(Nc3ccccc3S(=O)(=O)C(C)C)n2)c(OC(C)C)cc1C1CCN(CCOCCOCCNc2cccc3c2C(=O)N(C2CCC(=O)NC2=O)C3=O)CC1 (centres unmarked) [Compound 45]
ALK kinase [1]
  inhibition at 0.1 µM: 98%
ALK kinase [2]
  inhibition at 1 µM: > 90%
SU-DHL-1 cells
  inhibition at 100 µM: 97%
